Results: article PMC12746157, “Light-Regulated Agonists Spatiotemporally Activating the Vitamin D Receptor Mitigate Psoriasis-like Inflammation in Mice without Inducing Hypercalcemia” (ACS Central Science, 2025)

Tests used:
[1] = UV-Vis absorption spectra and thermal relaxation of the cis isomers in DMSO; assay type: physicochemical; settings: 60 μM in 100% DMSO, 37 °C; for λn−π* (cis): after illumination; for λπ–π* (trans): dark
Description: The UV–vis absorbance spectra of all molecules were measured in the dark and after the application of light of different wavelengths ranging from 365 to 770 nm (Figure A and Figures S1–S3). […] Consequently, violet/UV light below 405 nm efficiently promoted photoisomerization, which produced a dramatic decrease in the π-π* band and a significant increase in the n-π* band at around 445 nm (Table ). […] The proportion of molecules at the PSS in trans isomer upon constant illumination with light at 525 nm and cis at 365 nm was in general above 50%, reaching a remarkable >99% for compound 11d (Table and Figures S4 and S5). […] The greater stability of the trans isomer was consistent with previous quantum mechanical and molecular mechanics predictions. Measuring the photoisomerization properties of compound PhotoVDRM allowed us to determine the photoisomerization quantum yields of the compound by solving a differential equation for photoisomerization. We used MATLAB to perform regression and arrive at the following photoisomerization quantum yields: ϕ365 nm (trans) = 0.0427, ϕ365 nm (cis) = 0.0501, ϕ470 nm (trans) = 0.1857, and ϕ470 nm (cis) = 0.2281 (Figure S9). Compound PhotoVDRM was also evaluated in aqueous buffer used for pharmacological experiments (0.5% DMSO) showing a thermal relaxation of 3 h, almost 7 times faster than in pure DMSO (Figure B). […] A deeper photocharacterization of PhotoVDRM allowed us to measure the kinetics of photoconversion upon constant illumination with two wavelengths and three light intensities (Figure D and Figure S10). […] Indeed, with LED devices producing light at intensities as low as 0.05 mW/mm^2 we were able to transform trans to cis in around 15.5 s. This time was reduced to 6 and 2 s when the light intensity was increased to 0.15 and 0.75 mW/mm^2. […] Therefore, we proceeded to test the ability of the chemical library to activate the VDR under different light conditions.
2. Photochemical characterization. […]
(§1) (200 µL per well). The absorption spectra were recorded from 300 to 600 nm with 2 nm fixed intervals using a Tecan Spark 20M Multimode microplate reader. Initial measurements were performed in the dark, followed by spectra acquired immediately after each 3 min period of light irradiation at different wavelengths using 96-well LED array plates (LEDA Teleopto). Theoretical absorbance spectra corresponding to the pure cis isomer (100%) of each compound were calculated in order to obtain the theoretical percentage of cis isomer at each wavelength, according to the method described by Ernst Fischer (1967). Thermal relaxation kinetics of the experimental cis isomers were assessed in quartz cuvettes (10 mm optical path) containing freshly prepared 50 […]
Dark state absorbance at 365 nm was recorded at 37
ºC using a ThermoFisher Evolution 350 UV-Vis spectrophotometer. Samples were then irradiated for 3 minutes at 365 nm with a CoolLED pE-4000 light sourceto induce trans → cis photoisomerization.. Absorbance at 365 nm was subsequently monitored over 48 h: every 15 min during the first 24 h, and every 60 min during the following 24 h. Relaxation half-lives were determined by fitting the absorbance-time data to a […] exponential model using GraphPad Prism v10.4.1. […]

[2] = Proportions of cis and trans at the photostationary state in DMSO from absorbance spectra (Ernst Fischer method); assay type: physicochemical
Description: 2. Photochemical characterization.
as §1, with “A 50 µM solution of each compound in DMSO was dispensed into a transparent 96-well plate (200” for “(200”, “(1967).” for “(1967). Thermal relaxation kinetics of the experimental cis isomers were assessed in quartz cuvettes (10 mm optical path) containing freshly prepared 50”
Table S6. Proportions of cis and trans at the photostationary state in DMSO. […]

Compound | t 1/2 (thermal relaxation of cis) [1] [h] | λn−π* (cis) [1] [nm] | λπ–π* (trans) [1] [nm] | %cis at the photostationary state ([2]; 365 nm) | %trans at the photostationary state ([2]; 365 nm) | %cis at the photostationary state ([2]; 380 nm) | %trans at the photostationary state ([2]; 380 nm) | %cis at the photostationary state ([2]; 405 nm) | %trans at the photostationary state ([2]; 405 nm) | %cis at the photostationary state ([2]; 420 nm) | %trans at the photostationary state ([2]; 420 nm) | %cis at the photostationary state ([2]; 470 nm) | %trans at the photostationary state ([2]; 470 nm) | %cis at the photostationary state ([2]; 500 nm) | %trans at the photostationary state ([2]; 500 nm) | %cis at the photostationary state ([2]; 530 nm) | %trans at the photostationary state ([2]; 530 nm) | %cis at the photostationary state ([2]; 420 nm, listed as PhotoVDRM)
COC(=O)c1ccc(-c2cccc(/N=N/c3ccc(OCC(O)C(C)(C)C)c(C)c3)c2)cc1 (stereo not drawn) [Compound 10a] | 9.3 | 446 | 366 | 93,70% | 6,30% | 91,83% | 8,17% | 60,42% | 39,58% | 58,05% | 41,95% | 29,15% | 70,85% | 25,54% | 74,46% | 20,56% | 79,44% | –
Cc1cc(OCC(O)C(C)(C)C)ccc1N=Nc1cccc(-c2ccc(C(=O)O)cc2)c1 (stereo not drawn) [Compound 11b] | 20.5 | 442 | 362 | 96,87% | 3,13% | 95,62% | 4,38% | 63,64% | 36,36% | 60,47% | 39,53% | 31,30% | 68,70% | 32,81% | 67,19% | 29,14% | 70,86% | up to 60%
Cc1cc(/N=N/c2cccc(-c3ccc(C(=O)O)cc3C)c2)ccc1OCC(O)C(C)(C)C (stereo not drawn) [Compound 11c] | 25.4 | 444 | 364 | 97,22% | 2,78% | 94,72% | 5,28% | 61,36% | 38,64% | 59,26% | 40,74% | 31,49% | 68,51% | 28,18% | 71,82% | 22,70% | 77,30% | –
Cc1cc(OCC(O)C(C)(C)C)ccc1/N=N/c1cccc(-c2ccc(CO)cc2)c1 (stereo not drawn) [Compound 12b] | 6.8 | 444 | 362 | 96,19% | 3,81% | 95,15% | 4,85% | 62,30% | 37,70% | 59,96% | 40,04% | 29,61% | 70,39% | 25,15% | 74,85% | 19,72% | 80,28% | –
Cc1cc(OCC(O)C(C)(C)C)ccc1/N=N/c1cccc(-c2ccc(CO)cc2C)c1 (stereo not drawn) [Compound 12d] | 8.2 | 446 | 362 | 96,92% | 3,08% | 95,77% | 4,23% | 63,77% | 36,23% | 60,13% | 39,87% | 32,14% | 67,86% | 33,18% | 66,82% | 29,47% | 70,53% | –
Cc1cc(/N=N/c2cccc(-c3ccc(C(=O)O)cc3)c2)ccc1OCC(O)C(C)(C)C (stereo not drawn) [Compound 11a] | 9.1 | 440 | 366 | 94,52% | 5,48% | 92,81% | 7,19% | 60,54% | 39,46% | 58,09% | 41,91% | 29,80% | 70,20% | 26,59% | 73,41% | 21,22% | 78,78% | –
COC(=O)c1ccc(-c2cccc(/N=N/c3ccc(OCC(O)C(C)(C)C)c(C)c3)c2)c(C)c1 (stereo not drawn) [Compound 10c] | 12.5 | 444 | 366 | 97,00% | 3,00% | 95,62% | 4,38% | 61,14% | 38,86% | 59,71% | 40,29% | 30,53% | 69,47% | 26,82% | 73,18% | 21,34% | 78,66% | –
